In patent publication US20140128359A1, “N-Heterocyclic Substituent-Containing Antibiotic, Preparation and Use Thereof” (priority 2012, published 2014):
Read-outs that look alike come from different tables or passages of the source.

Assays:
[1] = Muscle stimulation test on rabbits; format: in vivo, New Zealand rabbits
Description: The inventors have conducted the muscle stimulation test of Compounds Ia and II on rabbits. The test is as follows. Eight New Zealand rabbits were divided into three groups. Two groups, containing three rabbits per group, were administrated with Compound Ia and Compound II, respectively. The third group, containing two rabbits, was used as a negative control group. The rabbits were intramuscularly injected with high concentrations of the compounds into the left quadriceps and with low concentration into the right quadriceps. The negative control group was injected with an equal concentration of sodium chloride into the quadriceps of both sides. Each quadriceps was administrated with 1.0 mL once a day for three consecutive days. One or two rabbits from each group were anatomized after 48 hours of the injection. The remaining rabbits were anatomized after the end of the two-week recovery period.

[2] = format: physicochemical; settings: for content in aqueous injection solution: 37° C.
Description: (§1) Compared to Compound II, Compound I has better stability in aqueous solution (see Table 2) and in the solid state (See Table 3). Thus Compound I can be stored without freezing or special treatment.

[3] = Solid state stability, 72 hours in storage at various temperatures; format: physicochemical
Description: as §1

pH of aqueous solution = format: physicochemical
[4] = format: in vivo
Method: The inventors conducted preliminary pharmacokinetic study of Compound Ia on Beagle dogs. The Beagle dogs were allowed to drink water freely but not to eat food for 16 hours before and 4 hours after the intravenous injection of 50 mg/kg.bw of the compound. Intravenous blood sampling took place at 0, 0.083, 0.17, 0.25, 0.5, 1, 1.5, 2, 3, 4, 6, 9, 12 hours, respectively, after the injection, each blood sample being 3 mL. Thereafter the dogs were given the drugs every other week and blood samples were taken according to the above manner. The blood samples were added to the centrifuge tubes containing heparin and thoroughly mixed by centrifuging at 4000 rpm for 10 minutes. The blood plasma was separated and an abstraction agent (methanol/ethyl acetate 3:2 V/V) was added to and mixed with it by centrifuging at 10000 rpm for 10 minutes. The top, clear liquid, 20 μL, was taken and analyzed by HPLC.

[5] = Acute toxicity tests on rats; format: in vivo; settings: intravenous injection
Excrement Enterococcus [6] = test: Vitro bacteriostasis, two-fold agar dilution method; format: cell-based
Method: (§2) Vitro bacteriostasis experiments of Compounds Ia, Ib, and Ic were performed using the two-fold agar dilution method.

Haemophilus Influenzae = test: as above; format: cell-based
Method: as §2

Moraxella Catarrhalis [7] = test: as above; format: cell-based
Method: as §2

Pneumonia Chain Coccus [8] = test: as above; format: cell-based
Method: as §2

Shigella = test: as above; format: cell-based
Method: as §2

Type A Chain Coccus = test: as above; format: cell-based
Method: as §2

Type B Chain Coccus = test: as above; format: cell-based
Method: as §2

Excrement Enterococcus [9] = test: In-vivo antibacterial activity (protection of rats); settings: against Excrement Enterococcus
Pneumonia Chain Coccus [10] = test: as above; settings: against Pneumonia Chain Coccus
Moraxella Catarrhalis [11] = test: as above; settings: against Moraxella Catarrhalis
[12] = healthy Beagle dogs, single intravenous injection 50 mg/kg.bw

Row | SMILES | content in aqueous injection solution ([2]; 0 hr) [%] | content in aqueous injection solution ([2]; 0.2 hr) [%] | content in aqueous injection solution ([2]; 1 hr) [%] | content in aqueous injection solution ([2]; 2 hr) [%] | content in aqueous injection solution ([2]; 3 hr) [%] | content in aqueous injection solution ([2]; 4 hr) [%] | content after 72 hours in storage ([3]; 10° C.) [%] | content after 72 hours in storage ([3]; 40° C.) [%] | content after 72 hours in storage ([3]; 60° C.) [%] | content after 72 hours in storage ([3]; −5° C.) [%] | pH (pH of aqueous solution; concentration not given) | t1/2β [4, 12] [min] | LD50 [5] [mg/kg] | MIC90 (Excrement Enterococcus [6]) [µg/mL] | MIC90 (Haemophilus Influenzae) [µg/mL] | MIC90 (Moraxella Catarrhalis [7]) [µg/mL] | MIC90 (Pneumonia Chain Coccus [8]) [µg/mL] | MIC90 (Shigella) [µg/mL] | MIC90 (Type A Chain Coccus) [µg/mL] | MIC90 (Type B Chain Coccus) [µg/mL] | further results
1 | CC(C)N=C(NC(C)C)SCC(=O)NC1C(=O)N2C(C(=O)O)=C(CSc3nc(=O)c(=O)[nH]n3C)CSC12 (stereo not drawn) [Compound II, 7-(α-((N,N′-diisopropylamidino)thio)acetylamino)-3-(((1,2,5,6-tetrahydro-2-methyl-5,6-dioxo-1,2,4-triazin-3-yl)thio)methyl) cephalosporanic acid, reference compound] | 98.50 | 94.33 | 84.26 | 77.04 | 71.06 | 66.48 | 97.9 | 96.3 | 92.75 | 98.0 | 3.2 | – | – | – | – | – | – | – | – | – | irritation (general statement) ([1]; rabbit, in vivo): irritates muscles and blood vessels; muscle irritation observed ([1]; rabbit, in vivo): various levels of intense irritation; stability (general statement) [2]: low stability; pH value of saturated aqueous solution (pH of aqueous solution; saturated aqueous solution): 3.2
2 | CC(=O)OCC1=C(C(=O)O)N2C(=O)[C@@H](NC(=O)CSC(=NC(C)C)NC(C)C)[C@H]2SC1 [cefathiamidine, Cefathiamidine, reference compound] | – | – | – | – | – | – | – | – | – | – | – | 39 ± 1.8 | 824.2 | – | – | – | – | – | – | – | biological half-life in blood ([4]; Beagle dogs, preliminary pharmacokinetic study): 0.65 hours
3 | CC(C)N=C(NC(C)C)SCC(=O)NC1C(=O)N2C(C(=O)[O-])=C(CSc3nc(=O)c(=O)[nH]n3C)CSC12.[K+] (stereo not drawn) [Compound Ic, 7-(α-((N,N′-diisopropylamidino)thio)acetylamino)-3-(((1,2,5,6-tetrahydro-2-methyl-5,6-dioxo-1,2,4-triazin-3-yl)thio)methyl) cephalosporanic acid monopotassium salt] | – | – | – | – | – | – | – | – | – | – | – | – | – | 8 | 0.5 | 0.5 | 0.5 | 4 | 0.1 | 0.0156 | –
4 | CC(C)N=C(NC(C)C)SCC(=O)NC1C(=O)N2C(C(=O)[O-])=C(CSc3nc(=O)c(=O)[nH]n3C)CSC12.CC(C)N=C(NC(C)C)SCC(=O)NC1C(=O)N2C(C(=O)[O-])=C(CSc3nc(=O)c(=O)[nH]n3C)CSC12.[Na+].[Na+] (stereo not drawn) [Compound Ib, disodium 7-(α-((N,N′-diisopropylamidino)thio)acetylamino)-3-(((1,2,5,6-tetrahydro-2-methyl-5,6-dioxo-1,2,4-triazin-3-yl)thio)methyl) cephalosporanate] | 98.80 | 98.54 | 97.14 | 96.66 | 95.21 | 94.30 | – | – | – | – | – | – | – | 4 | 0.5 | 0.5 | 0.5 | 4 | 0.1 | 0.0125 | pH (pH of aqueous solution; concentration 0.1 g/mL): 10.02
5 | CC(C)N=C(NC(C)C)SCC(=O)NC1C(=O)N2C(C(=O)[O-])=C(CSc3nc(=O)c(=O)[nH]n3C)CSC12.[Na+] (stereo not drawn) [Compound Ia, 7-(α-((N,N′-diisopropylamidino)thio)acetylamino)-3-(((1,2,5,6-tetrahydro-2-methyl-5,6-dioxo-1,2,4-triazin-3-yl)thio)methyl) cephalosporanic acid mono sodium salt] | 98.60 | 98.60 | 97.98 | 97.79 | 97.24 | 97.13 | 96.9 | 96.6 | 96.4 | 97.0 | 7.3 | 155 ± 2.4 | 1747.6 | 8 | 0.5 | 1 | 0.125 | 4 | 0.5 | 0.0625 | AUC [4, 12]: 108.29 ± 18.17 µg·h/mL; ClB [4, 12]: 7.83 ± 1.5 mL/min/kg; Cmax [4, 12]: 116.35 ± 12.06 µg/mL; V1 [4, 12]: 0.25 ± 0.07 L/kg; VB [4, 12]: 1.61 ± 0.30 L/kg; t1/2α [4, 12]: 37.8 ± 7.2 min; drug concentration after 12 hours of the administration ([4]; healthy Beagle dogs, single intravenous injection 50 mg/kg.bw, 12 hours): 0.39 ± 0.09 µg/mL; protection for rats (Excrement Enterococcus [9]): excellent protection; protection for rats (Pneumonia Chain Coccus [10]): excellent protection; protection for rats (Moraxella Catarrhalis [11]): excellent protection; muscle irritation observed ([1]; rabbits, intramuscular into quadriceps, 1.0 mL once a day for three days, 48 hours and 14 days after last administration): slight irritation; pH (pH of aqueous solution; concentration 0.1 g/mL): 7.3; solubility in acetone (Solubility; acetone): not readily soluble; solubility in anhydrous ethanol (Solubility; anhydrous ethanol): not readily soluble; solubility in methanol (Solubility; methanol): readily soluble; solubility in water (Solubility; water): readily soluble
